The results in this text go back to ChEMBL document CHEMBL3621076, “Synthesis and Characterization in Vitro and in Vivo of (l)-(Trimethylsilyl)alanine Containing Neurotensin Analogues” (J Med Chem, 2015).

For data set [1], the species on record is Rattus norvegicus. Put plainly: Analgesic activity in rat by tail flick test. The class given is functional. (In general: In hot-plate and tail-flick tests a longer latency is read as antinociception.)
The nature of data set [2]: Half life in rat plasma at 0.156 mM by UPLC/MS method. It counts as ADME, cell-free.
For data set [3], the target named is T1, Neurotensin receptor type 1 (Homo sapiens, UniProt P30989). Put plainly: Displacement of [125I]-Tyr3-NT from human NTS1 receptor expressed in CHOK1 cell membranes incubated for 30 mins by gamma-counting based competitive radioligand binding assay. Also noted: species or system CHO-K1. (In general: Displacement assays read how much labelled ligand stays bound in the presence of the test substance.)

Data set [4] addresses Neurotensin receptor type 2 (Homo sapiens, UniProt O95665). As to the kind of experiment: Displacement of [125I]-Tyr3-NT from human NTS2 receptor expressed in 1321N1 cell membranes incubated for 30 mins by gamma-counting based competitive radioligand binding assay.
The target of data set [5] is T1, Neurotensin receptor type 1. As to the kind of experiment: Agonist activity at human NTS1 receptor expressed in CHOK1 cells co-expressing Galphaq-RlucII(121)/Gbeta1/GFP10-Ggamma1 assessed as Galpha-q stimulation incubated for 15 mins by BRET assay. It counts as cell-based, CHO-K1.
Data set [6] has the same target. Put plainly: Agonist activity at human NTS1 receptor expressed in CHOK1 cells co-expressing hNTS1-GFP10/RlucII-beta-arrestin 2 assessed as beta-arrestin2 recruitment incubated for 15 mins by BRET assay. It counts as cell-based, CHO-K1.
The target of data set [7] is Neurotensin receptor type 1 (Rattus norvegicus, UniProt P20789). Put plainly: Agonist activity at […] NTS1 in Sprague-Dawley rat ileum assessed as inhibition of carbachol-induced contraction. The class given is tissue-based.
The subject of data set [8] is Rattus norvegicus. As to the kind of experiment: Reduction in arterial blood pressure in Sprague-Dawley rat at 0.1 mg/kg, iv measured over 4 mins. It counts as functional.
For data set [9], the system named is Rattus norvegicus. Put plainly: Reduction in arterial blood pressure in Sprague-Dawley rat assessed as hypotensive effect during pressor phase returning to baseline saline values within <1 mins at 0.1 mg/kg, iv measured over 4 mins. The class given is functional, organism-based.
For data set [10], the system named is Rattus norvegicus. As to the kind of experiment: Reduction in arterial blood pressure in Sprague-Dawley rat assessed as sustained and pronounced hypotensive phase at 0.1 mg/kg, iv measured over 4 mins. The class given is functional, organism-based.
Data set [11] has as its system Rattus norvegicus. Put plainly: Analgesic activity in Sprague-Dawley rat assessed as increase in response latency to thermal noxious stimulus at 30 ug/kg, it measured every 10 mins for up to 1 hr post dose by tail immersion test. The class given is functional, organism-based.
Data set [12] relates to Rattus norvegicus. Put plainly: Analgesic activity in Sprague-Dawley rat assessed as maximal possible effect for reduction in sensitivity to heat stimulation at 30 ug/kg, it measured every 10 mins for up to 1 hr post dose by tail immersion test. More on the design: scale not given: the % may be the effect or the level left. It counts as functional.
Data set [13] concerns Rattus norvegicus. As to the kind of experiment: Analgesic activity in Sprague-Dawley rat model of formalin-induced persistent tonic pain model assessed as reduction in weighted pain score during acute phase at 30 ug/kg, it by formalin test. It counts as functional, organism-based.
Data set [14] has as its system Rattus norvegicus. Put plainly: Analgesic activity in Sprague-Dawley rat model of formalin-induced persistent tonic pain model assessed as reduction in weighted pain score during inflammatory phase at 30 ug/kg, it by formalin test. It counts as functional, organism-based.

Activity calls are given as the source filed them. The calls are words filed in the database; no cut-off is given here. Square brackets hold non-standard residues; d marks the D form. Peptide text beside a SMILES is read from it. Pro(4-sila,4,4-Me2) = C[Si]1(C)CN[C@H](C(=O)O)C1; Ala(SiMe3) = C[Si](C)(C)C[C@H](N)C(=O)O; NMeR = CN[C@@H](CCCNC(=N)N)C(=O)O; hLys = NCCCCC[C@H](N)C(=O)O A value given as a limit tells only on which side of the number the result lay.

T1 sequence (P30989 whole entry): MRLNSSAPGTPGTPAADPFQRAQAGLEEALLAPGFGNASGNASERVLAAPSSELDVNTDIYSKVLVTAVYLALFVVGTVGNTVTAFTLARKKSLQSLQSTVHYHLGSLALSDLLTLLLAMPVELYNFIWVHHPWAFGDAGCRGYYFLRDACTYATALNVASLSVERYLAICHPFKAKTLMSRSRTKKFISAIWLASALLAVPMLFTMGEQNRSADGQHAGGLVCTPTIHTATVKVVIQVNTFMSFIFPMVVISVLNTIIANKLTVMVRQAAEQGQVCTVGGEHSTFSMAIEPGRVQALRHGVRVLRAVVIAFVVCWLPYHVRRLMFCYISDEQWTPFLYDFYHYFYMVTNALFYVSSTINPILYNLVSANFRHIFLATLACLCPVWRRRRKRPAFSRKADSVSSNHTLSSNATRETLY
Neurotensin receptor type 1 (Rattus norvegicus, UniProt P20789), sequence (P20789 whole entry): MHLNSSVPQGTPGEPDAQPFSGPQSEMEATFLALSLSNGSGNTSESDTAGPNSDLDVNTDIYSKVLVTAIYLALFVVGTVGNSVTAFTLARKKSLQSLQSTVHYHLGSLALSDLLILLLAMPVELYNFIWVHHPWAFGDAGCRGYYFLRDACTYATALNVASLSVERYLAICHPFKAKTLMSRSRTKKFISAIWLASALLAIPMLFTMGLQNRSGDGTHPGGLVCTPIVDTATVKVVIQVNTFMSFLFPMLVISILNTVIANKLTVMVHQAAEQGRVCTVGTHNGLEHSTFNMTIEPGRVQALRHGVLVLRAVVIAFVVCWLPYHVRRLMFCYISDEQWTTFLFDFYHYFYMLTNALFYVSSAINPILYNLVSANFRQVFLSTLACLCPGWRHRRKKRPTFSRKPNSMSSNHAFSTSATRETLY
Neurotensin receptor type 2, sequence (O95665 whole entry): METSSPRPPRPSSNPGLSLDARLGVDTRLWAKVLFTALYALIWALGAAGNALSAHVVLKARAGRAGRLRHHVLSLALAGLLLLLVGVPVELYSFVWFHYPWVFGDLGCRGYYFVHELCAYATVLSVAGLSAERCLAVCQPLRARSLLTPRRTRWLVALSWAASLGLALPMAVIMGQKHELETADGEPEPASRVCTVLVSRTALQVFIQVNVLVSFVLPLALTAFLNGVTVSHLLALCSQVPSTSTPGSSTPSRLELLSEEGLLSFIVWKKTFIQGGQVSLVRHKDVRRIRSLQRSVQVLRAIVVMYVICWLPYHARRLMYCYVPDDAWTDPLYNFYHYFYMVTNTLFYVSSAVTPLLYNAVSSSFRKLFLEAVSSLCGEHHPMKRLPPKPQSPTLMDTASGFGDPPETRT

`CN1CC[C@]23c4c5ccc(O)c4O[C@H]2C(=O)CC[C@H]3[C@H]1C5` [HYDROMORPHONE] came in with an ED50 in data set [1] of 78 nmol.
Broadly, the half-life is how long it takes for the measured level to halve. A word on the IC50: it is the concentration needed to halve the response being measured. As usually defined, the EC50 is the midpoint of the concentration-response curve. `CN[C@@H](CCCNC(=N)N)C(=O)N[C@@H](CCCCN)C(=O)N1CCC[C@H]1C(=O)N[C@@H](Cc1ccc(O)cc1)C(=O)N[C@@H](C[Si](C)(C)C)C(=O)N[C@@H](CC(C)C)C(=O)O` (H-[NMeR]KPY[Ala(SiMe3)]L-OH) came in with a half-life at 156 µM in [2] above 120 min. For the same compound, the figures for the concentration for half-maximal inhibition (IC50) in [3] and in data set [4] were 246 nM and 29.7 nM, respectively. Further, the figures for the EC50 in [5], in data set [6] and in data set [7] were 204 nM, 4.19 nM and above 10000 nM, respectively.
Compound `CC(C)C[C@H](NC(=O)[C@H](C[Si](C)(C)C)NC(=O)[C@H](Cc1ccc(O)cc1)NC(=O)[C@@H]1C[Si](C)(C)CN1C(=O)[C@H](CCCCN)NC(=O)[C@@H](N)CCCCCN)C(=O)O` (H-[hLys]K[Pro(4-sila,4,4-Me2)]Y[Ala(SiMe3)]L-OH) came in with a half-life at 156 µM in data set [2] of 3.52 min. In addition, the IC50 in data set [3] was 968 nM; in [4] it was 1420 nM. Moreover, the EC50 in data set [5] was above 10000 nM; in data set [6], above 1000 nM; in data set [7], above 10000 nM.
`CC(C)C[C@H](NC(=O)[C@H](C[Si](C)(C)C)NC(=O)[C@H](Cc1ccc(O)cc1)NC(=O)[C@@H]1CCCN1C(=O)[C@H](CCCCN)NC(=O)[C@@H](N)CCCCN)C(=O)O` (H-KKPY[Ala(SiMe3)]L-OH) yielded a half-life at 156 µM in data set [2] of 2.4 min. The IC50 in [3] was 93.8 nM; in [4], 405 nM. Moreover, the EC50 in data set [5] was 169 nM; in [6], 26.6 nM; in data set [7], above 10000 nM.
In data set [1], `CN1CC[C@]23c4c5ccc(O)c4O[C@H]2[C@@H](O)C=C[C@H]3[C@H]1C5` [MORPHINE] showed an ED50 of 7.4 nmol.
The compound `C[Si](C)(C)C[C@H](NC(=O)[C@H](C[Si](C)(C)C)NC(=O)[C@H](Cc1ccc(O)cc1)NC(=O)[C@@H]1CCCN1C(=O)[C@H](CCCCN)NC(=O)[C@@H](N)CCCCN)C(=O)O` (H-KKPY[Ala(SiMe3)][Ala(SiMe3)]-OH) displayed a half-life at 156 µM in data set [2] of 2.83 min. The concentration for half-maximal inhibition (IC50) in data set [3] was 15.4 nM; in data set [4] it was 28.9 nM. Also, the results for the EC50 in [5], in [6] and in data set [7] were 11 nM, 0.34 nM and 22.5 nM, respectively.
`CO[C@@]12CC[C@@]3(C[C@@H]1[C@](C)(O)C(C)(C)C)[C@H]1Cc4ccc(O)c5c4[C@@]3(CCN1CC1CC1)[C@H]2O5` [BUPRENORPHINE] showed an ED50 in data set [1] of 4 nmol.
Turning to `CC[C@H](C)[C@H](NC(=O)[C@H](Cc1ccc(O)cc1)NC(=O)[C@@H]1CCCN1C(=O)[C@H](CCCCN)NC(=O)[C@@H](N)CCCCN)C(=O)N[C@@H](C[Si](C)(C)C)C(=O)O` (H-KKPYI[Ala(SiMe3)]-OH), the half-life at 156 µM in data set [2] was 1.33 min. Besides, the 50% inhibitory concentration (IC50) in data set [3] was 0.02 nM; in data set [4], 0.26 nM. For the same compound, the concentration giving a half-maximal response (EC50) is 1.51 nM in data set [5], 1.49 nM in data set [6] and 1.41 nM in [7]. Further, the outcome in data set [8], in data set [9], in data set [10], in [11], in [13] and in data set [14] was Active. In addition, the Activity in [12] is given as 40%.
`CC[C@H](C)[C@H](NC(=O)[C@H](Cc1ccc(O)cc1)NC(=O)[C@@H]1CCCN1C(=O)[C@H](CCCNC(=N)N)NC(=O)[C@@H](N)CCCNC(=N)N)C(=O)N[C@@H](CC(C)C)C(=O)O` yielded a half-life at 156 µM in data set [2] of 1.95 min. Moreover, the Activity in [8] stood at 30 mmHg.
